Results reported in patent publication US6156291A, “Chemical and pharmacological standardization of herbal extracts” (CV Technologies Inc., priority 1998, dated 2000).
“Also recorded” adds a separate entry of the source.

Assays:
[1] = Morris Water Maze and Scopolamine induced Amnesia Model; assay type: in vivo, rat
Source text: As CVT-E001 is a mixture of ginsenosides, it may not have the same properties as pure saponins. […] Rats are required to learn the location of a hidden platform in a murky swimming pool. […] The effects of CVT-E001 on memory can also be examined in scopolamine induced amnesia (scopolamine interferes with the cholinergic neurotransmitter system and impedes learning and memory). If CVT-E001 enhances learning and/or memory it should facilitate task acquisition and/or protect against memory loss in scopolamine treated animals.
A study was designed of spatial learning and memory using the Morris water maze and scopolamine induced amnesia with CVT-E001 as the test compound. The specific aim of the experiment was to test if CVT-E001 affected the acquisition and/or retention of a new task in the presence of scopolamine induced amnesia. Rats (S/D strain males, 200-250 g, about 8 weeks old) are initially divided into two groups and fed either water (0.5 ml) or CVT-E001 (200 mg/kg/day in 0.5 ml water by gavage) for the duration of the experiment. Eight days after the initiation of CVT-E001 administration rats are given the task of learning the position of a platform hidden in a pool of murky water. The rats are placed in the pool 4 times per day for 5 days and the time required to find the platform in recorded (maximum duration 5 minutes). This time becomes shorter as the rats learn the task. On day 14 the two groups of rats are further subdivided into four groups. Six rats from each of the initial two groups receive saline injections while the remaining six rats from each initial group receive scopolamine (2 mg/kg) prior to being required to find the platform which has been moved to a new location (3 trials, maximum duration 3 minutes within 30 minutes of receiving either saline or scopolamine injection. On day 15 the procedure for day 14 was repeated with the platform remaining located in the position designated on day 14. On day 16, the procedure from day 14 was again followed except that the platform was moved to a location on the opposite side of the pool. On day 17 the procedure followed on day 14 was repeated except that the platform remains in the location designated on day 16. In each instance the time to locate the platform is recorded.
This experiment was repeated twice using 24 rats each time. The data from the two experiments was combined. One CVT-E001 treated rat died from accidental administration of CVT-E001 into the lungs.
Statistical analysis was by analysis of variance on log transformed data. As a posteriori test of significance were performed using the Newman-Keulstest.

[2] = pure ginsenosides; literature; cited from earlier work
[3] = system: PC12 (pheochromocytoma) cell lines; assay: neurite outgrowth in PC12 cells; assay type: cell-based; conditions: seven days after treatment; FIGS. 26, 27
Protocol: PC12 cells were seeded and maintained in 100 cm^2 tissue culture dishes at 37° C. in RRMI1640 containing 1% antibiotics, 10% heated inactivated horse serum and 5% fetal bovine serum in a water saturated atmosphere of 95% air and 5% CO2. NIE-115 cells were maintained in a flask in 90% DMEM (Dulbecco's Modified Eagle Medium, Gibco, Grand Island, N.Y., USA) with 10% FBS and antibiotic PNS (penicillin, neomycin streptomycin). The culture plates were maintained in a temperature-controlled (37° C.) humidified atmosphere consisting of 95% room air and 5% CO2. The cells were mechanically dislodged for the experiment by forceful aspiration of the medium through a Pasteur pipette and plated in 35 mm collagen-coated tissue culture dishes containing a total of 2.0 ml of complete medium at a density of 1×10^4 cells/ml. […]
The cellular response to Nerve Growth Factor (NGF) and samples were determined by counting the number of cells contained processes in PC12 cells. […]
The cells and neurites were counted as follows.
Cells with circular or global shapes and no neurite outgrowth were scored as 0 (S0).
Cells with more than two small neurites on the cell bodies were scored as S2.
Cells with one or two neurites with the length of at least two times diameter as their body were scored as S3.
Cells with more than two long neurites were scored as S4.
The neurite index was calculated as below: […]

[4] = system: PC12 (pheochromocytoma) cell lines; conditions: literature; cited from earlier work
[5] = system: dorsal and sympathetic ganglia; conditions: literature (Saito 1985), cited from earlier work; for neurite outgrowth by NGF: in presence of NGF; for neurite outgrowth without NGF: on its own
rat brain synaptosomes [6] = conditions: literature (Benishin, 1992); Rb1 positive control, HC3 negative control; cited from earlier work
rat brain synaptosomes [7] = assay: choline uptake in rat brain synaptosomes; assay type: biochemical; conditions: for effect on choline uptake (FIG. 1): various doses, rat brain synaptosomes
Source text: (1) Effects of CVT-E001 on choline uptake in isolated brain synaptosomes in rats
(§1) Choline uptake has been examined in synaptosome preparations from whole brain and hippocampus in the presence of Rb1, CVT-E001 and HC3.
The magnitude of these effects are consistent with the previous studies.

[8] = system: synaptosomes prepared from rat hippocampus; assay: choline uptake into synaptosomes prepared from rat hippocampus; assay type: biochemical; conditions: Table 2
Source text: as §1
This observation is not unexpected as many pharmacological compounds have an optimal dose range and more or less of the material results in less biological activity.

| Molecule | learning and memory [2] | neurite outgrowth by NGF [5] | neurite outgrowth without NGF [5] | choline uptake, previously demonstrated (rat brain synaptosomes [6]) | effect on choline uptake (FIG. 1) (rat brain synaptosomes [7]) | further results |
| --- | --- | --- | --- | --- | --- | --- |
| CN1[C@@H]2C[C@@H](OC(=O)[C@H](CO)c3ccccc3)C[C@H]1[C@@H]1O[C@@H]12 [scopolamine] |  |  |  |  |  | latency remembering platform location, combined trials ([1]; day 15, scopolamine 2 mg/kg, CVT-E001 200 mg/kg/day, FIG. 19): significantly greater latency than all other groups; latency to second new platform location, trial 3 ([1]; day 16, scopolamine 2 mg/kg, FIG. 20): demonstrated a scopolamine induced learning deficit; latency remembering second platform location, first trial ([1]; day 17, scopolamine 2 mg/kg with or without CVT-E001 200 mg/kg/day, FIG. 22): significantly impaired; latency remembering second platform location, combined trials ([1]; day 17, scopolamine 2 mg/kg with or without CVT-E001 200 mg/kg/day, FIG. 23): demonstrate a learning deficit |
| CC(C)=CCC[C@](C)(O[C@@H]1O[C@H](CO)[C@@H](O)[C@H](O)[C@H]1O)[C@H]1CC[C@]2(C)[C@@H]1[C@H](O)C[C@@H]1[C@@]3(C)CC[C@H](O)C(C)(C)[C@@H]3[C@@H](O[C@@H]3O[C@H](CO)[C@@H](O)[C@H](O)[C@H]3O)C[C@]12C [Rg1, ginsenoside Rg1] | enhance learning and memory; also recorded: improve memory in experimental animals |  |  |  |  |  |
| NGF: Nerve Growth Factor, prototype neurotrophin |  |  |  |  |  | neurite outgrowth in PC12 [3]: increased neurite outgrowth in PC12 in a dose-dependent manner; PC12 response to NGF treatment [4]: neurite outgrowth and electrical excitability |
| CC(C)=CCC[C@](C)(O[C@@H]1O[C@H](CO)[C@@H](O)[C@H](O)[C@H]1O)[C@H]1CC[C@]2(C)[C@@H]1[C@H](O)C[C@@H]1[C@@]3(C)CC[C@H](O[C@@H]4O[C@H](CO)[C@@H](O)[C@H](O)[C@H]4O[C@@H]4O[C@H](CO)[C@@H](O)[C@H](O)[C@H]4O)C(C)(C)[C@@H]3CC[C@]12C [Rd, ginsenoside Rd] |  | enhance neurite outgrowth of dorsal and sympathetic ganglia | no effect on its own |  |  |  |
| C[N+]1(C)CCOC(O)(c2ccc(-c3ccc(C4(O)C[N+](C)(C)CCO4)cc3)cc2)C1 (stereo not shown) [HC3] |  |  |  | inhibit choline uptake | inhibits choline uptake |  |
| CC(C)=CCC[C@](C)(O[C@@H]1O[C@H](CO[C@@H]2O[C@H](CO)[C@@H](O)[C@H](O)[C@H]2O)[C@@H](O)[C@H](O)[C@H]1O)[C@H]1CC[C@]2(C)[C@@H]1[C@H](O)C[C@@H]1[C@@]3(C)CC[C@H](O[C@@H]4O[C@H](CO)[C@@H](O)[C@H](O)[C@H]4O[C@@H]4O[C@H](CO)[C@@H](O)[C@H](O)[C@H]4O)C(C)(C)[C@@H]3CC[C@]12C [Rb1, ginsenoside Rb1] | enhance learning and memory; also recorded: improve memory in experimental animals | enhance neurite outgrowth of dorsal and sympathetic ganglia | no effect on its own | increase choline uptake into synaptosomes | promotes choline uptake | choline uptake (in words) [8]: increase choline uptake; stimulation of choline uptake (in words) (rat brain synaptosomes [7]; Table 3): significantly stimulate choline uptake; potency ranking, choline uptake (rat brain synaptosomes [7]; Table 3, CVT-E001 contains 8.1% Rb1, 32.4% total ginsenosides, n = 4): CVTE001 > TS > Rb1 |
